Source: US10000507B2, “Furo- and thieno-pyridine carboxamide compounds useful as pim kinase inhibitors” (Incyte Corporation, priority 2013, dated 2018)
pIC50: −log10 of the molar value.

Assays:
Format in all cases: biochemical
[1] = target: Pim-2 (Homo sapiens (Human), UniProt Q9P1W9); assay: Pim-2 kinase assay; details: 1 mM ATP, fluorescein-labeled CREBtide peptide substrate; read-out: Pim2 IC50
Method in brief: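 Phosphorylated CREBtide was detected by terbium anti-pSer133 antibody TR-FRET after EDTA quench and 30 min at room temperature. Reactions ran 2 h at 25 °C with 1 mM ATP, 0.05 μM fluorescein-labelled substrate and 1 nM enzyme in pH 7.5 Tris buffer.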

[2] = target: Pim-3 (Homo sapiens (Human), UniProt Q86V86); assay: Pim-3 kinase assay; details: 1 mM ATP, biotin-labeled BAD peptide substrate; read-out: Pim3 IC50
Method in brief: (§1)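 Biotin-BAD peptide ([…]) phosphorylated with 1 mM ATP by 2.5 pM Pim-1 or 1.25 pM Pim-3, 1 h at 25 °C in Tris pH 7.5, MgCl2, DTT buffer. EDTA stop with anti-phospho-BAD (Ser112) antibody and AlphaScreen streptavidin donor/Protein-A acceptor beads; signal read after 1 h dark incubation.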

[3] = target: Pim-1 (Homo sapiens (Human), UniProt P11309); assay: Pim-1 kinase assay; details: 1 mM ATP, biotin-labeled BAD peptide substrate; read-out: Pim1 IC50
Method in brief: as §1

Sequence of Pim-2 (Q9P1W9 whole entry): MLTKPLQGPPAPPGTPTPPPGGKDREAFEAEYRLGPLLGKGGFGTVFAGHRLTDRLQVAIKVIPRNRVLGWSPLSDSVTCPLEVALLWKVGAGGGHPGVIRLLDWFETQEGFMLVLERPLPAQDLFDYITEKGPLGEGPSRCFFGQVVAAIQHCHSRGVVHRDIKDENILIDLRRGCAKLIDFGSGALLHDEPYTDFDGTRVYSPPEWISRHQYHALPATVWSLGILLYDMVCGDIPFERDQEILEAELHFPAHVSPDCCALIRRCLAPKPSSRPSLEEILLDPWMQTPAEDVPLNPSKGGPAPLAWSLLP
Sequence of Pim-1 (P11309 whole entry): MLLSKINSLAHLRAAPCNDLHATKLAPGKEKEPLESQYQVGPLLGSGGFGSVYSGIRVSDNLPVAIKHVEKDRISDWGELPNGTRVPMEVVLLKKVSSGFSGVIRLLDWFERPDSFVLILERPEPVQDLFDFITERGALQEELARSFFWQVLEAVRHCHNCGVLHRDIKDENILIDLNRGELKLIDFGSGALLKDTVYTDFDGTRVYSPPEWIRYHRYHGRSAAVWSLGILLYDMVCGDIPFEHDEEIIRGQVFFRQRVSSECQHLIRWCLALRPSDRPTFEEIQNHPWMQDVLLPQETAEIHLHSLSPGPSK

SMILES | pIC50 [1] | pIC50 [2] | pIC50 [3]
CNC(=O)c1ccc(-c2cnc3c(C(=O)Nc4cnccc4N4C[C@@H](N)C[C@@H](C(F)(F)F)C4)c(N)oc3c2)cn1 [Example 126] | 7.00 to 8.00 | ≥ 8.00 | ≥ 8.00
CNC(=O)c1ccc(-c2cnc3c(C(=O)Nc4cnccc4N4C[C@H](C)C[C@H](N)C4)c(N)oc3c2)cn1 [Example 127, 2-Amino-N-(4-((3S,5R)-3-amino-5-methylpiperidin-1-yl)pyridin-3-yl)-6-(6-(methylcarbamoyl)pyridin-3-yl)furo[3,2-b]pyridine-3-carboxamide] | 7.00 to 8.00 | ≥ 8.00 | ≥ 8.00
Nc1oc2cc(C3CC3)cnc2c1C(=O)Nc1cnccc1N1C[C@@H](N)[C@H](O)[C@@H](C2CC2)C1 [Example 128, 2-Amino-N-(4-((3R,4R,5S)-3-amino-5-cyclopropyl-4-hydroxypiperidin-1-yl)pyridin-3-yl)-6-cyclopropylfuro[3,2-b]pyridine-3-carboxamide] | 7.00 to 8.00 | ≥ 8.00 | ≥ 8.00
Nc1oc2cc(C(F)(F)F)cnc2c1C(=O)Nc1cnccc1N1C[C@@H](N)[C@H](O)[C@@H](C2CC2)C1 [Example 129, 2-Amino-N-(4-((3R,4R,5S)-3-amino-5-cyclopropyl-4-hydroxypiperidin-1-yl)pyridin-3-yl)-6-(trifluoromethyl)furo[3,2-b]pyridine-3-carboxamide] | 7.00 to 8.00 | ≥ 8.00 | ≥ 8.00
CC(C)c1cnc2c(C(=O)Nc3cnccc3[C@@H]3C[C@H](C)C[C@H](N)C3)c(N)oc2c1 [Example 130, 2-Amino-N-{4-[(1R,3S,5S)-3-amino-5-methylcyclohexyl]pyridin-3-yl}-6-isopropylfuro[3,2-b]pyridine-3-carboxamide] | ≥ 8.00 | ≥ 8.00 | ≥ 8.00
COCCCc1cnc2c(C(=O)Nc3cnccc3N3C[C@@H](N)C[C@@H](C(F)(F)F)C3)c(N)oc2c1 [Example 131, 2-Amino-N-{4-[(3S,5R)-3-amino-5-(trifluoromethyl)piperidin-1-yl]pyridin-3-yl}-6-(3-methoxypropyl)furo[3,2-b]pyridine-3-carboxamide] | ≥ 8.00 | ≥ 8.00 | ≥ 8.00
Nc1oc2cc(CCCN3CCOCC3)cnc2c1C(=O)Nc1cnccc1N1C[C@@H](N)C[C@@H](C(F)(F)F)C1 [Example 132, 2-Amino-N-{4-[(3S,5R)-3-amino-5-(trifluoromethyl)piperidin-1-yl]pyridin-3-yl}-6-(3-morpholin-4-ylpropyl)furo[3,2-b]pyridine-3-carboxamide] | ≥ 8.00 | ≥ 8.00 | ≥ 8.00
C[C@@H]1C[C@H](N)C[C@H](c2ccncc2NC(=O)c2c(N)oc3cc(C4CC4)cnc23)C1 [Example 133, 2-Amino-N-{4-[(1R,3S,5S)-3-amino-5-methylcyclohexyl]pyridin-3-yl}-6-cyclopropylfuro[3,2-b]pyridine-3-carboxamide] | ≥ 8.00 | ≥ 8.00 | ≥ 8.00
COCCCc1cnc2c(C(=O)Nc3cnccc3N3C[C@H](C)C[C@H](N)C3)c(N)oc2c1 [Example 134, 2-Amino-N-{4-[(3S,5R)-3-amino-5-methylpiperidin-1-yl]pyridin-3-yl}-6-(3-methoxypropyl)furo[3,2-b]pyridine-3-carboxamide] | ≥ 8.00 | ≥ 8.00 | ≥ 8.00
CN(C)CCCc1cnc2c(C(=O)Nc3cnccc3N3C[C@@H](N)C[C@@H](C(F)(F)F)C3)c(N)oc2c1 [Example 135, 2-Amino-N-{4-[(3S,5R)-3-amino-5-(trifluoromethyl)piperidin-1-yl]pyridin-3-yl}-6-[3-(dimethylamino)propyl]furo[3,2-b]pyridine-3-carboxamide] | 7.00 to 8.00 | ≥ 8.00 | ≥ 8.00
Nc1oc2cccnc2c1C(=O)Nc1cnccc1[C@H]1C[C@@H](N)C[C@@H](C(F)(F)F)C1 [Example 136, 2-Amino-N-{4-[(1R,3R,5S)-3-amino-5-(trifluoromethyl)cyclohexyl]pyridin-3-yl}furo[3,2-b]pyridine-3-carboxamide] | 7.00 to 8.00 | ≥ 8.00 | ≥ 8.00
C[C@H]1CN(c2ccncc2NC(=O)c2c(N)oc3cc(CCCF)cnc23)C[C@@H](N)[C@@H]1O [Example 137, 2-Amino-N-(4-((3R,4R,5S)-3-amino-4-hydroxy-5-methylpiperidin-1-yl)pyridin-3-yl)-6-(3-fluoropropyl)furo[3,2-b]pyridine-3-carboxamide] | ≥ 8.00 | ≥ 8.00 | ≥ 8.00
Nc1oc2cc(CCN3CC[C@@H](F)C3)cnc2c1C(=O)Nc1cnccc1N1C[C@@H](N)C[C@@H](C(F)(F)F)C1 [Example 138, 2-Amino-N-{4-[(3S,5R)-3-amino-5-(trifluoromethyl)piperidin-1-yl]pyridin-3-yl}-6-{2-[(3R)-3-fluoropyrrolidin-1-yl]ethyl}furo[3,2-b]pyridine-3-carboxamide] | ≥ 8.00 | ≥ 8.00 | ≥ 8.00
CC(C)c1cnc2c(C(=O)Nc3cnccc3N3C[C@@H](N)[C@H](O)[C@@H](C)C3)c(N)sc2c1 [Example 139, 2-Amino-N-(4-((3R,4R,5S)-3-amino-4-hydroxy-5-methylpiperidin-1-yl)pyridin-3-yl)-6-isopropylthieno[3,2-b]pyridine-3-carboxamide] | ≥ 8.00 | ≥ 8.00 | ≥ 8.00
CCCc1cnc2c(C(=O)Nc3cnccc3N3C[C@@H](N)[C@H](O)[C@@H](C)C3)c(N)sc2c1 [Example 140, 2-Amino-N-(4-((3R,4R,5S)-3-amino-4-hydroxy-5-methylpiperidin-1-yl)pyridin-3-yl)-6-propylthieno[3,2-b]pyridine-3-carboxamide] | ≥ 8.00 | ≥ 8.00 | ≥ 8.00
CC(=O)Nc1cnc2c(C(=O)Nc3cnccc3N3C[C@@H](N)[C@H](O)[C@@H](C)C3)c(N)sc2c1 [Example 141, 6-(Acetylamino)-2-amino-N-{4-[(3R,4R,5S)-3-amino-4-hydroxy-5-methylpiperidin-1-yl]pyridin-3-yl}thieno[3,2-b]pyridine-3-carboxamide] | 7.00 to 8.00 | ≥ 8.00 | ≥ 8.00
C[C@H]1CN(c2ccncc2NC(=O)c2c(N)sc3cc(NC(=O)C4CC4)cnc23)C[C@@H](N)[C@@H]1O [Example 142, 2-Amino-N-(4-((3R,4R,5S)-3-amino-4-hydroxy-5-methylpiperidin-1-yl)pyridin-3-yl)-6-(cyclopropanecarboxamido)thieno[3,2-b]pyridine-3-carboxamide] | 7.00 to 8.00 | ≥ 8.00 | ≥ 8.00
CC(C)C(=O)Nc1cnc2c(C(=O)Nc3cnccc3N3C[C@@H](N)[C@H](O)[C@@H](C)C3)c(N)sc2c1 [Example 143, 2-Amino-N-(4-((3R,4R,5S)-3-amino-4-hydroxy-5-methylpiperidin-1-yl)pyridin-3-yl)-6-isobutyramidothieno[3,2-b]pyridine-3-carboxamide] | 7.00 to 8.00 | ≥ 8.00 | ≥ 8.00
Nc1sc2cc(N3CCOCC3)cnc2c1C(=O)Nc1cnccc1N1C[C@@H](N)C[C@@H](C(F)(F)F)C1 [Example 144, 2-Amino-N-(4-((3S,5R)-3-amino-5-(trifluoromethyl)piperidin-1-yl)pyridin-3-yl)-6-morpholinothieno[3,2-b]pyridine-3-carboxamide] | 7.00 to 8.00 | ≥ 8.00 | ≥ 8.00
